Results on 22 sequences are retold here after US20050164234A1, “Methods of using mammalian RNase H and compositions thereof” (priority 1997, published 2005).

Strand notation (5' to 3'): a small letter for the sugar, then the base; units joined by * are phosphorothioate-linked, units joined directly phosphodiester-linked; [ ] holds rarer units or linkages, { } end groups; capitals alone tell only the bases. e = 2'-O-(2-methoxyethyl) (MOE); [5mC] = 5-methylcytosine; d = 2'-deoxy (DNA)

A word on the % inhibition: it is the drop in the measured response relative to a control, in per cent.

Series [1] concerns human RNase H2. The experiment in a line: Antisense inhibition of human RNase H2 expression, Northern blot. The class given is cell-based. Set-up: % of control / % inhibition: concentration or dose not given beside the values. To be noted: for % inhibition / % of control: RNase H2 expression, Northern blot; for inhibition of human RNase H2 expression: summary of Table 3; for reduction of expression: dose response, A549 cells. The procedure:
Total RNA was isolated from different human cell lines (ATCC, Rockville, Md.) using the guanidine isothiocyanate method (21). Ten μg of total RNA was separated on a 1.2% agarose/formaldehyde gel and transferred to Hybond-N+ (Amersham, Arlington Heights, Ill.) followed by fixing using UV crosslinker (Strategene, La Jolla, Calif.). The premade multiple tissue Northern Blot membranes were also purchased from Clontech (Palo Alto, Calif.). To detect RNase H2 mRNA, hybridization was performed by using ^32P-labeled human RNase H II cDNA in Quik-Hyb buffer (Strategene, La Jolla, Calif.) at 68 EC for 2 hours. After hybridization, membranes were washed in a final stringency of 0.1×SSC/0.1% SDS at 60 EC for 30 minutes and subjected to auto-radiography.
A series of antisense oligonucleotides were targeted to the human RNase H2 polynucleotide sequence (SEQ ID NO: 11). These compounds were all 2′-O-methoxyethyl “gapmers” with an 8-nucleotide deoxy gap and a phosphorothioate backbone. Cytosine residues are 5-methyl cytosines. The 2′-O-methoxyethyl (2′MOE) nucleotides are shown in bold.
The oligonucleotides shown in Table 2 were tested by Northern blot analysis for their ability to inhibit expression of human RNase H2. Results are expressed in Table 3.

Series [2] relates to human RNase H2. The experiment in a line: Screen of antisense compounds (gapped oligonucleotides, siRNA) in cells against human RNase H2. In kind it is cell-based. To be noted: percent inhibition of RNase H enzyme levels; target H2. Set-up: concentration or dose not given beside the values. The procedure:
Oligonucleotides were identified by screening in cells (Crooke, S. T., 2003, in Burger's Medicinal Chemistry, 6th ed., pp 115-166; Vickers et al., 2003, J. Biol. Chem. 278, 7108-7118).
For this experiment oligoribonucleotides were purchased from Dharmacon Research, Inc. (Boulder Colo.). siRNA duplexes were formed in the solution containing 20 μM each oligoribonucleotide (sense strand shown and antisense strand complement—generally with a one base overhang at each end), 100 mM potassium acetate, 30 mM HEPES-KOH pH 7.4, 2 mM magnesium acetates. Reactions were heated for 1 minute at 90° C. and incubated for 1 hour at 37° C. The control gapped antisense oligonucleotide, is ISIS 29848, […] (SEQ ID NO: 104), where N is a mixture of A, G, C and T. Bold residues are 2′-MOE residues. The siRNA controls are either the single strand sense RNA strand or other RNA duplexes that are not complementary to the target. For transfection of cells, cells were incubated with a mixture of 3 μg/ml lipofectin (Invitrogen, Carlsbad Calif.) per 1-200 nM oligonucleotide or siRNA in OptiMEM medium (Invitrogen). After 4 hours the transfection mixture was aspirated from the cells and replaced with fresh medium containing 10% fetal bovine serum and the cells were incubated at 37° C. in 5% CO2 until harvest or second transfection.

Consider “CGCCTCAGCCGCCACCACCA (all C 5-methyl, all phosphorothioate, sugars by position not given here; further chemistry not fully specified) [ISIS 21946, 2′-O-methoxyethyl gapmer, 8-nucleotide deoxy gap, phosphorothioate backbone, targeted to human RNase H2]”, for which, in series [1], the “% inhibition” value came out at 50%, the “% of control” value is 50% and the “inhibition of human RNase H2 expression” value is on record as “at least 50%”.

With “GGTAGAGGGCATCTGCTTTG (eG*eG*eT*eA*eG*eA*dG*dG*dG*d[5mC]*dA*dT*d[5mC]*dT*eG*e[5mC]*eT*eT*eT*eG) [ISIS 21953]”, in series [1], the “% inhibition” value came to 59%, the “% of control” value is on record as 41% and the “inhibition of human RNase H2 expression” value is on record as “at least 50%”.

“CAGTTTCTCCACGAATTGCC (antisense e[5mC]*eA*eG*eT*eT*eT*d[5mC]*dT*d[5mC]*d[5mC]*dA*d[5mC]*dG*dA*eA*eT*eT*eG*e[5mC]*e[5mC]) [ISIS 21955, 2′-O-methoxyethyl gapmer, 8-nucleotide deoxy gap, phosphorothioate backbone, targeted to human RNase H2]”: in series [1], the “% inhibition” value is 33% and the “% of control” value was determined as 67%. Further, in series [2], the “% Inhib” value was 33.3%.

For the sequence GACCAUCCUGGAGAAAGAGGC [Si 21958], in series [2], the “% Inhib” value worked out at 45.8%.

Regarding “ACTCCAGGCCGCGTTCCAGG (antisense eA*e[5mC]*eT*e[5mC]*e[5mC]*eA*dG*dG*d[5mC]*d[5mC]*dG*d[5mC]*dG*dT*eT*e[5mC]*e[5mC]*eA*eG*eG) [ISIS 21959, 2′-O-methoxyethyl gapmer, 8-nucleotide deoxy gap, phosphorothioate backbone, targeted to human RNase H2]”, in series [1], the “% inhibition” value is listed as 82%, the “% of control” value came out at 18% and the “inhibition of human RNase H2 expression” value was “at least 50%”. In addition, in series [2], the “% Inhib” value was 81.2%.

On to “AGCTGAACCGGACAAACTGG (antisense eA*eG*e[5mC]*eT*eG*eA*dA*d[5mC]*d[5mC]*dG*dG*dA*d[5mC]*dA*eA*eA*e[5mC]*eT*eG*eG) [ISIS 21957, 2′-O-methoxyethyl gapmer, 8-nucleotide deoxy gap, phosphorothioate backbone, targeted to human RNase H2]”, for which, in series [1], the “% inhibition” value came to 68%, the “% of control” value worked out at 32% and the “inhibition of human RNase H2 expression” value is listed as “at least 50%”. For the same sequence, the “% Inhib” value in series [2] stood at 68.1%.

With “CCTACGTGTGGTTCTCCTTA (antisense e[5mC]*e[5mC]*eT*eA*e[5mC]*eG*dT*dG*dT*dG*dG*dT*dT*d[5mC]*eT*e[5mC]*e[5mC]*eT*eT*eA) [ISIS 21960, 2′-O-methoxyethyl gapmer, 8-nucleotide deoxy gap, phosphorothioate backbone, targeted to human RNase H2]”, in series [1], the “% inhibition” value came to 92%, the “% of control” value worked out at 8% and the “inhibition of human RNase H2 expression” value was “at least 50%”. In series [1] (200 nM), the reduction of expression is on record as above 80%. In addition, the reduction of expression in series [1] (lowest dose tested 50 nM) turned out to be 60%. In addition, the “% Inhib” value in series [2] was determined as 91.7%.

For the sequence GGCAAUUCGUGGAGAAACUGC [Si 21955], the “% Inhib” value in series [2] came to 19.2%.

For the sequence CCAGUUUGUCCGGUUCAGCUG [Si 21957], in series [2], the “% Inhib” value was found to be 42.4%.

As to “CCACCTTGGCACAGATGCTG (all C 5-methyl, all phosphorothioate, sugars by position not given here; further chemistry not fully specified) [ISIS 21954, 2′-O-methoxyethyl gapmer, 8-nucleotide deoxy gap, phosphorothioate backbone, targeted to human RNase H2]”, in series [1], the “% inhibition” value is listed as 77%, the “% of control” value is reported as 23% and the “inhibition of human RNase H2 expression” value is on record as “at least 50%”.

With GAAGCAAGGUGGGAGUGUGCU [Si 21961], in series [2], the “% Inhib” value is recorded as 15.2%.

Turning to CCUGGAACGCGGCCUGGAGUC [Si 21959], in series [2], the “% Inhib” value was 53.8%.

In the case of “CGGTGTCCACGAATACCTGG (all C 5-methyl, all phosphorothioate, sugars by position not given here; further chemistry not fully specified) [ISIS 21951, 2′-O-methoxyethyl gapmer, 8-nucleotide deoxy gap, phosphorothioate backbone, targeted to human RNase H2]”, in series [1], the “% inhibition” value is reported as 74%, the “% of control” value worked out at 26% and the “inhibition of human RNase H2 expression” value was “at least 50%”.

As to “CCTCTTTCTCCAGGATGGTC (antisense e[5mC]*e[5mC]*eT*e[5mC]*eT*eT*dT*d[5mC]*dT*d[5mC]*d[5mC]*dA*dG*dG*eA*eT*eG*eG*eT*e[5mC]) [ISIS 21958, 2′-O-methoxyethyl gapmer, 8-nucleotide deoxy gap, phosphorothioate backbone, targeted to human RNase H2]”, in series [1], the “% inhibition” value is 38% and the “% of control” value worked out at 62%. Besides, the “% Inhib” value in series [2] came to 38.0%.

For “CAAAAGGAAGTAGCTGGACC (antisense e[5mC]*eA*eA*eA*eA*eG*dG*dA*dA*dG*dT*dA*dG*d[5mC]*eT*eG*eG*eA*e[5mC]*e[5mC]) [ISIS 21962, 2′-O-methoxyethyl gapmer, 8-nucleotide deoxy gap, phosphorothioate backbone, targeted to human RNase H2]”, in series [1], the “% inhibition” value was 37% and the “% of control” value came to 63%. In addition, the “% Inhib” value in series [2] was 36.0%.

As to “CACAGGCGAACTCAGGCGAC (all C 5-methyl, all phosphorothioate, sugars by position not given here; further chemistry not fully specified) [ISIS 21947, 2′-O-methoxyethyl gapmer, 8-nucleotide deoxy gap, phosphorothioate backbone, targeted to human RNase H2]”, in series [1], the “% inhibition” value is given as 63%, the “% of control” value is recorded as 37% and the “inhibition of human RNase H2 expression” value is on record as “at least 50%”.

Take “CGCGCCTGGTATGTCTCTGG (all C 5-methyl, all phosphorothioate, sugars by position not given here; further chemistry not fully specified) [ISIS 21952, 2′-O-methoxyethyl gapmer, 8-nucleotide deoxy gap, phosphorothioate backbone, targeted to human RNase H2]”: in series [1], the “% inhibition” value was determined as 89%, the “% of control” value is 11% and the “inhibition of human RNase H2 expression” value is listed as “at least 50%”. Besides, in series [1] (200 nM), the reduction of expression entry is “approximately 70%”. The reduction of expression in series [1] (lowest dose tested 50 nM) is on record as 60%.

Turning to “CCCAGCCGACAAAGTCCGTG (all C 5-methyl, all phosphorothioate, sugars by position not given here; further chemistry not fully specified) [ISIS 21950, 2′-O-methoxyethyl gapmer, 8-nucleotide deoxy gap, phosphorothioate backbone, targeted to human RNase H2]”, in series [1], the “% inhibition” value was 68%, the “% of control” value stood at 32% and the “inhibition of human RNase H2 expression” value is given as “at least 50%”.

With UAAGGAGAACCACACGUAGGG [Si 21960], in series [2], the “% Inhib” value is given as 9.9%.

On to GGUCCAGCUACUUCCUUUUGG [Si 21962], for which the “% Inhib” value in series [2] was 0%.

Consider “CCCGCTCGCTCTCCAATAGG (all C 5-methyl, all phosphorothioate, sugars by position not given here; further chemistry not fully specified) [ISIS 21949, 2′-O-methoxyethyl gapmer, 8-nucleotide deoxy gap, phosphorothioate backbone, targeted to human RNase H2]”, for which, in series [1], the “% inhibition” value is 82%, the “% of control” value came out at 18% and the “inhibition of human RNase H2 expression” value is recorded as “at least 50%”.

In the case of “GGACAATAACAGATGGCGTA (eG*eG*eA*e[5mC]*eA*eA*dT*dA*dA*d[5mC]*dA*dG*dA*dT*eG*eG*e[5mC]*eG*eT*eA) [ISIS 21948]”, in series [1], the “% inhibition” value is on record as 62%, the “% of control” value is 38% and the “inhibition of human RNase H2 expression” value was “at least 50%”.
